From patent US8414938B2, “Schisandrae fructus extracts for inhibition or prevention of H1N1 influenza virus infection and its application thereof” (National Defense Medical Center, priority 2011, dated 2013)
≈ marks a conversion by molar mass, not a printed value. Like-named read-outs stand apart in the source and are kept apart here.

Experiments:
influenza virus H1N1 = assay: organism not typed; assay type: cell-based; conditions: for MIC: read-out: MIC, H1N1
MDCK cells [1] = assay: MTT cell survival of MDCK cells treated with sample alone (D group, pharmacotoxicity)
MDCK cells [2] = conditions: dog
[3] = 6.25 μg/ml, compound and H1N1 at the same time, MDCK (Table 10)
[4] = 10 μg/ml, compound and H1N1 0.01 MOI at the same time, MDCK, 48 hrs (Table 9)
[5] = 12.5 μg/ml, compound and H1N1 at the same time, MDCK (Table 10)
[6] = 25 μg/ml, compound and H1N1 at the same time, MDCK (Table 10)
[7] = 50 μg/ml, compound and H1N1 0.01 MOI at the same time, MDCK, 48 hrs (Table 9)
[8] = 50 μg/ml, compound and H1N1 at the same time, MDCK (Table 10)
[9] = 75 μg/ml, compound and H1N1 at the same time, MDCK (Table 10)
[10] = 100 μg/ml, compound and H1N1 at the same time, MDCK (Table 10)
[11] = influenza virus H1N1, MDCK cells, MTT

SMILES	MIC (influenza virus H1N1) [µg/mL]	cell survival ratio, D + V (influenza virus H1N1; [3])	cell survival ratio, D + V (influenza virus H1N1; [4])	cell survival ratio, D + V (influenza virus H1N1; [5])	cell survival ratio, D + V (influenza virus H1N1; [6])	cell survival ratio, D + V (influenza virus H1N1; [7])	cell survival ratio, D + V (influenza virus H1N1; [8])	cell survival ratio, D + V (influenza virus H1N1; [9])	cell survival ratio, D + V (influenza virus H1N1; [10])	cell survival ratio, D (MDCK cells [1]; 12.5 μg/ml)	pharmaceutical toxicity / cytotoxicity (MDCK cells [2])	MIC, H1N1 (influenza virus H1N1; [11]) [µg/mL]	MIC (influenza virus H1N1; [11]) [µg/mL]	cell survival ratio, D (MDCK cells [1]; 6.25 μg/ml)
NC(=O)c1ncn([C@@H]2O[C@H](CO)[C@@H](O)[C@H]2O)n1 [Ribavirin, ribavirin, reference compound]	3.12 (≈ 12.8 µM)													
COc1cc([C@@H]2c3cc(OC)c(O)cc3C(=O)[C@@H](C)[C@H]2C)ccc1O [Wulignan A1]	12.5 (≈ 36.5 µM)	++ (>50% but ≦75%)	++ (>50% but ≦75%)	+++ (>75% but ≦100%)	++++ (>100%)	++++ (>100%)	++++ (>100%)	++++ (>100%)	++++ (>100%)	++++ (key: +/−: cell survival ratio ≦25%; +: >25% but ≦50%; ++: >50% but ≦75%; +++: >75% but ≦100%; ++++: >100%)	more than 100 μg/ml			
C/C=C(\C)C(=O)O[C@H]1c2cc(OC)c(OC)c(OC)c2-c2c(cc3c(c2OC)OCO3)C[C@H](C)[C@@]1(C)O (atropisomer, axis not shown) [Tigloylgomisin P]		+/− (cell survival ratio of ≦25%)	+/− (cell survival ratio of ≦25%)	+/− (cell survival ratio of ≦25%)	+ (>25% but ≦50%)	+++ (>75% but ≦100%)	++++ (>100%)	++++ (>100%)	++++ (>100%)		more than 100 μg/ml	50.0 (≈ 97.2 µM)	50 (≈ 97.2 µM)	
COc1cc([C@@H]2c3cc(OC)c(O)cc3C(=O)[C@H](C)[C@H]2C)ccc1O [Epiwulignan A1]		+ (>25% but ≦50%)	+ (>25% but ≦50%)		+++ (>75% but ≦100%)	++++ (>100%)	++++ (>100%)	++++ (>100%)	++++ (>100%)	++++ (key: +/−: cell survival ratio ≦25%; +: >25% but ≦50%; ++: >50% but ≦75%; +++: >75% but ≦100%; ++++: >100%)	more than 100 μg/ml	25.0 (≈ 73 µM)	25 (≈ 73 µM)	
COc1cc2c(cc1O)C(=O)[C@@H](C)[C@@H](C)[C@@H]2c1ccc(OC)c(OC)c1 [Schisandrone]		+ (>25% but ≦50%)	++ (>50% but ≦75%)	++++ (>100%)	++++ (>100%)	++++ (>100%)	++++ (>100%)	++++ (>100%)	+/− (cell survival ratio of ≦25%)		100 µg/mL		12.5 (≈ 35.1 µM)	++++ (key: +/−: cell survival ratio ≦25%; +: >25% but ≦50%; ++: >50% but ≦75%; +++: >75% but ≦100%; ++++: >100%)
COc1cc2c(c(OC)c1OC)-c1c(cc3c(c1OC)OCO3)C[C@H](C)[C@@](C)(O)[C@H]2OC(=O)c1ccccc1 (atropisomer, axis not shown) [Benzoylgomisin P]	12.5 (≈ 23.3 µM)	++ (>50% but ≦75%)	+++ (>75% but ≦100%)		++++ (>100%)	++++ (>100%)	++++ (>100%)	++++ (>100%)	++++ (>100%)	++++ (key: +/−: cell survival ratio ≦25%; +: >25% but ≦50%; ++: >50% but ≦75%; +++: >75% but ≦100%; ++++: >100%)	more than 100 μg/ml			
